The results in this text go back to patent US5436343A, “Alkenecarboxylic acid compounds” (Adir et Compagnie, priority 1992, dated 1995).

SMILES strings stand for the structures. Structures can show the parent of a compound that is named as a salt.

The first test concerns platelets (aggregation induced by U46619). The experiment in a line: Platelet aggregation in man (U46619-induced, PRP). Format: cell-based. The following applies: human PRP, procedure of Example 22 (U46619 1.2 μM), read-out: IC50 (50% inhibition of platelet aggregation induced by U46619). The protocol: Platelet aggregation is carried out at 37° C. in siliconed glass tubes using an aggregometer. The PRP and the PL are stirred at 1000 rpm (revolutions per minute). In order to study the activity of thromboxane antagonists, the PRP is incubated for 1 min at 37° C., and the antagonist is then added for a period of 3 min before addition of the agonist U46619 (1.2 μM). The final volume in the measuring cell is then 250 μl. The intensity of platelet aggregation is established by taking the maximum amplitude of aggregation plots and is expressed as a percentage light transmission (% T). The activity of the antagonists is expressed as IC50, that is to say the concentration of the substance which induces a 50% inhibition of the aggregation response induced by U46619.
Platelet Aggregation in Man
Venous blood is obtained from human volunteers who have not taken aspirin for at least 14 days prior to the experiment. The blood is withdrawn onto sodium citrate (0.109M) (1 vol. of citrate to 9 vol. of blood). Platelet-rich plasma (PRP) is obtained after centrifugation (20° C.) at 200 g for 10 minutes. The number of platelets is 250,000 PL/mm^3 on average. The PRP is stored at the temperature of the room until the time of the test, and is used within 2 hours following withdrawal from the subject. The antagonists are tested according to the procedure described in Example 22.
For orientation: IC50 means the concentration that inhibits the measured activity by half. On to `O=C(O)CC/C=C\CC1(CCNS(=O)(=O)c2ccc(Cl)cc2)CCCC1` [Example 3, (4Z)-9-[(4-Chlorophenyl)sulfonamido]-7,7-tetramethylene-4-nonenoic acid sodium salt], for which the 50% inhibitory concentration (IC50) is 80 nM.

In the next test the test system is Dog platelets (aggregation induced by U46619+adrenaline). The experiment in a line: Platelet aggregation in dogs (U46619 + adrenaline, PRP). The test is classed as cell-based. The following applies: Canis lupus familiaris, adrenaline 10 μM then U46619 1.2 μM, 3 min preincubation, 37° C., read-out: IC50 (50% inhibition of the aggregation responses to U46619+adrenaline). The method, then:
Platelet Aggregation in Dogs
After anesthesia of the animal with pentobarbital sodium (30 mg/kg i.v.), arterial blood is withdrawn onto sodium citrate (0.109M) (1 vol. of citrate per 9 vol. of blood). Platelet-rich plasma (PRP) is obtained after centrifugation (20° C.) at 200 g for 10 minutes. The number of platelets in the PRP is 300,000 PL/mm^3 on average. The PRP is stored at the temperature of the room until the time of the test, and is used within 4 hours following withdrawal from the animal.
Dog platelets respond weakly to U46619 alone. […] The PRP is incubated at 37° C. in the presence of the test antagonist for 3 minutes. Aggregation is then obtained by the addition of adrenaline (10 μM) followed by that of U46619 (1.2 μM) 30 seconds later. The effect of the antagonists is measured, and the IC50 is determined as the concentration of the antagonist needed to produce a 50% inhibition of the aggregation responses to U46619+adrenaline.
Regarding `O=C(O)CCC/C=C\CC1(CCNS(=O)(=O)c2ccc(Br)cc2)CCCCC1` [Example 5, (5Z)-10-[(4-Bromophenyl)sulfonamido]-8,8-pentamethylene-5-decenoic acid sodium salt], the IC50 came out at 140 nM.

Turning to `Cc1ccc(S(=O)(=O)NCCC2(C/C=C\CCCC(=O)O)CCCCC2)cc1` [Example 4, (5Z)-10-[(4-Methylphenyl)sulfonamido]-8,8-pentamethylene-5-decenoic acid sodium salt], the IC50 stood at 200 nM.

Regarding `O=C(O)CCC/C=C\CC1(CCNS(=O)(=O)c2ccc(Cl)cc2)CCCCC1` [Example 1, (5Z)-10-[(4-Chlorophenyl)sulfonamido]-8,8-pentamethylene-5-decenoic acid sodium salt], the IC50 was found to be 140 nM.

In the case of `O=C(O)CC/C=C\CC1(CCNS(=O)(=O)c2ccc(Cl)cc2)CCCC1` [Example 3, (4Z)-9-[(4-Chlorophenyl)sulfonamido]-7,7-tetramethylene-4-nonenoic acid sodium salt], the IC50 came to 60 nM.

A further test deals with T1, guinea pig trachea (contractions caused by U46619) (Cavia porcellus, UniProt A0A286Y4I8).
T1 sequence (A0A286Y4I8 1-347): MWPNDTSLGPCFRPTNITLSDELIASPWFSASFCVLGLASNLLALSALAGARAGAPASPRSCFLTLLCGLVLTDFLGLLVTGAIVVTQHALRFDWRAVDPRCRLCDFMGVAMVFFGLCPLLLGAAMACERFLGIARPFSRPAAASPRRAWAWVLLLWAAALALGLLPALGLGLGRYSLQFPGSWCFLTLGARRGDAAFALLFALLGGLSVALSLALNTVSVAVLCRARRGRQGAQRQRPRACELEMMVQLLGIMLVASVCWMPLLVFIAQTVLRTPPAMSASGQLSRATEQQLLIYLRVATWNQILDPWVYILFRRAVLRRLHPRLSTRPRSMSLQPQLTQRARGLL
The experiment in a line: pA2 on guinea pig trachea (U46619-induced contraction). Format: cell-based. As to conditions: guinea pig tracheal rings; U46619 10^-9 M to 10^-5 M; antagonist contact 20 minutes.
As a reminder, the Kb is the equilibrium dissociation constant of an antagonist, usually derived from a functional assay. Compound `O=C(O)CCC/C=C\CC1(CCNS(=O)(=O)c2ccc(Br)cc2)CCCCC1` [Example 5, (5Z)-10-[(4-Bromophenyl)sulfonamido]-8,8-pentamethylene-5-decenoic acid sodium salt] showed a Kb of 6.31 nM. This lies in the single-digit nanomolar range.

Take `Cc1ccc(S(=O)(=O)NCCC2(C/C=C\CCCC(=O)O)CCCCC2)cc1` [Example 4, (5Z)-10-[(4-Methylphenyl)sulfonamido]-8,8-pentamethylene-5-decenoic acid sodium salt]: the Kb was 3.16 nM.

In the case of `O=C(O)CCC/C=C\CC1(CCNS(=O)(=O)c2ccc(Cl)cc2)CCCCC1` [Example 1, (5Z)-10-[(4-Chlorophenyl)sulfonamido]-8,8-pentamethylene-5-decenoic acid sodium salt], the Kb was 0.398 nM.

With `O=C(O)CCC/C=C\CCC1(NS(=O)(=O)c2ccc(Cl)cc2)CCCC1` [Example 11, (5Z)-9-[(4-Chlorophenyl)sulfonamido]-9,9-tetramethylene-5-nonenoic acid sodium salt], the Kb was 20 nM.

As to `O=C(O)CC/C=C\CCC1(NS(=O)(=O)c2ccc(Cl)cc2)CCCC1` [Example 10, (4Z)-8-[(4-Chlorophenyl)sulfonamido]-8,8-tetramethylene-4-octenoic acid sodium salt], the antagonist equilibrium constant (Kb) is 22.4 nM.

`O=C(O)CC/C=C\CC1(CCNS(=O)(=O)c2ccc(Cl)cc2)CCCC1` [Example 3, (4Z)-9-[(4-Chlorophenyl)sulfonamido]-7,7-tetramethylene-4-nonenoic acid sodium salt] had a Kb of 0.501 nM.

On to `O=C(O)CC/C=C\CC1(CCNS(=O)(=O)c2ccc(Cl)cc2)CCc2ccccc21` (stereo not shown) [sodium salt], for which the Kb is 3.98 nM.

Another test has as its system tracheal pressure in guinea pigs (bronchoconstriction caused by U46619). The experiment in a line: IC50 on tracheal pressure in guinea pigs (U46619-induced bronchoconstriction). As to conditions: Cavia porcellus, iv, 5 min; anesthetized guinea pigs; U46619 2 μg/kg i.v.; antagonist injected 5 minutes before U46619; read-out: IC50 (dose of antagonist that inhibits by 50% the increase in tracheal pressure caused by U46619). Format: in vivo, guinea pig. An excerpt: ICso on Tracheal Pressure in Guinea Pigs
Male albino guinea pigs (350-400 g) subjected to an 18-hour water diet are anesthetized with ethyl carbamate (1.25 g/kg i.p.). A catheter is introduced into the carotid artery in order to measure the arterial blood pressure by means of a pressure cell. A second catheter is introduced into the jugular vein and is used to inject the pharmacological substances. The trachea is cannulated and the guinea pig is placed in assisted respiration by means of a respirator. The animal's temperature is maintained at 37° C. using a thermostatic blanket. A needle pushed in the tracheal cannula is connected to a pressure cell and enables the tracheal pressure to be recorded.
The guinea pigs are pretreated with d-tubocurarine (1 mg/kg i.v.) and with indomethacin (10 mg/kg i.v.). When injected at a dose of 2 μg/kg i.v., U46619 causes a bronchoconstriction which leads to an increase in tracheal pressure and induces an increase in arterial blood pressure. The responses to U46619 are reversible and reproducible if the injections are carried out every 10 minutes.
The thromboxane receptor antagonists are injected 5 minutes before the injections of U46619. The dose of antagonist that inhibits by 50% the increase in tracheal pressure caused by U46619 is determined (IC50).
As for `O=C(O)CCC/C=C\CC1(CCNS(=O)(=O)c2ccc(Br)cc2)CCCCC1` [Example 5, (5Z)-10-[(4-Bromophenyl)sulfonamido]-8,8-pentamethylene-5-decenoic acid sodium salt], the ED50 stood at 0.066 mg/kg.

Take `Cc1ccc(S(=O)(=O)NCCC2(C/C=C\CCCC(=O)O)CCCCC2)cc1` [Example 4, (5Z)-10-[(4-Methylphenyl)sulfonamido]-8,8-pentamethylene-5-decenoic acid sodium salt]: the ED50 worked out at 0.105 mg/kg.

On to `O=C(O)CCC/C=C\CC1(CCNS(=O)(=O)c2ccc(Cl)cc2)CCCCC1` [Example 1, (5Z)-10-[(4-Chlorophenyl)sulfonamido]-8,8-pentamethylene-5-decenoic acid sodium salt], for which the ED50 came out at 0.027 mg/kg.

On to `O=C(O)CC/C=C\CC1(CCNS(=O)(=O)c2ccc(Cl)cc2)CCCC1` [Example 3, (4Z)-9-[(4-Chlorophenyl)sulfonamido]-7,7-tetramethylene-4-nonenoic acid sodium salt], for which the ED50 was 0.019 mg/kg.
